According to ChEMBL document CHEMBL5365436, “Novel Amphibian Bowman-Birk-Like Inhibitor with Antioxidant and Anticoagulant Effects Ameliorates Pancreatitis Symptoms in Mice” (J Med Chem, 2023):
The source made the active and inactive calls. No cut-off for these calls is given here. Positions of bridges follow the written chain, without caps; N, C: chain ends. Residues, ends and D or L forms follow the SMILES beside them.

Legend:
Mus musculus [1] = assay: Anti-inflammatory activity in L-arginine-induced acute pancreatitis in BALB/c mouse model assessed as inhibition of trypsin activity at 50 mg/kg preincubated with compound followed by L-Arg induction for 1 hr and measured after 24 hrs; assay type: functional, organism-based; conditions: time 25.0 hrs
Mus musculus [2] = assay: Anti-inflammatory activity in L-arginine-induced acute pancreatitis in BALB/c mouse model assessed as reduction in serum amylase at 50 mg/kg preincubated with compound followed by L-Arg induction for 1 hr and measured after 24 hrs by automatic analyzer; assay type: functional, organism-based; conditions: time 25.0 hrs
Mus musculus [3] = assay: Anti-inflammatory activity in L-arginine-induced acute pancreatitis in BALB/c mouse model assessed as reduction in IL-6 level at 50 mg/kg preincubated with compound followed by L-Arg induction for 1 hr and measured after 24 hrs by ELISA method; assay type: functional, organism-based; conditions: time 25.0 hrs
[4] = Antioxidant activity assessed as ferric reducing capacity at 40 uM measured at 10 min by FRAP assay (reference value: 20.87 %); assay type: functional; parameters: scale not given: the % may be the effect or the level left
Mus musculus [5] = species: Mus musculus; assay: Antithrombotic activity in L-arginine-induced acute pancreatitis in BALB/c mouse model assessed as inhibition of thrombin induced platelet aggregation preincubated with compound followed by L-Arg induction for 1 hr and measured after 24 hrs by fluorescence based analysis; assay type: functional, organism-based; conditions: dose 12.5-50 µM, time 25.0 hrs
Mus musculus [6] = assay: Anti-inflammatory activity in L-arginine-induced acute pancreatitis in BALB/c mouse model assessed as reduction in acinar cell necrosis in pancreas at 1.25 to 5 mg/kg preincubated with compound followed by L-Arg induction for 1 hr and measured after 24 hrs by H and E staining based analysis; assay type: functional, organism-based; conditions: dose 1.25-5 mg/kg, time 25.0 hrs
[7] = Antioxidant activity assessed as ABTS radical scavenging activity at 40 uM measured at 10 min by microplate reader analysis relative to control; assay type: functional
Mus musculus [8] = assay: Antithrombotic activity in L-arginine-induced acute pancreatitis in BALB/c mouse model assessed as reduction in thrombosis by measuring fluorescence intensity at 5 mg/kg preincubated with compound followed by L-Arg induction for 1 hr and measured after 24 hrs by imaging based analysis (reference value: 24497.7); assay type: functional; conditions: time 25 hrs
Mus musculus [9] = species: Mus musculus; assay: Antithrombotic activity in L-arginine-induced acute pancreatitis in BALB/c mouse model assessed as prolongation of plasma recalcification time preincubated with compound followed by L-Arg induction for 1 hr and measured after 24 hrs by fluorescence based analysis; assay type: functional, organism-based; conditions: dose 0.1-50 µM, time 25.0 hrs
Mus musculus [10] = species: Mus musculus; assay: Anti-inflammatory activity in L-arginine-induced acute pancreatitis in BALB/c mouse model assessed as inhibition of increase in myeloperoxidase activity at preincubated with compound followed by L-Arg induction for 1 hr and measured after 24 hrs; assay type: functional, organism-based; conditions: dose 1.25-5 mg/kg, time 25.0 hrs
Mus musculus [11] = assay: Antithrombotic activity FeCl3-induced thrombosis in BALB/c mouse model assessed as carotid artery blood flow time at 5 mg/kg preincubated with compound followed by FeCl3 treatment for 1 hr and measured upto 12 mins by laser perfusion imaging method; assay type: functional; conditions: time 72 min, 1.2 h
Mus musculus [12] = assay: Anti-inflammatory activity in L-arginine-induced acute pancreatitis in BALB/c mouse model assessed as improvement in neutrophil level in spleen at 1.25 to 5 mg/kg preincubated with compound followed by L-Arg induction for 1 hr and measured after 24 hrs by flow cytometry analysis; assay type: functional, organism-based; conditions: dose 1.25-5 mg/kg, time 25.0 hrs
Mus musculus [13] = species: Mus musculus; assay: Anti-inflammatory activity in L-arginine-induced acute pancreatitis in BALB/c mouse model assessed as reduction in serum amylase preincubated with compound followed by L-Arg induction for 1 hr and measured after 24 hrs by automatic analyzer; assay type: functional, organism-based; conditions: dose 1.25-5 mg/kg, time 25.0 hrs
Mus musculus [14] = assay: Antioxidant activity in L-arginine-induced acute pancreatitis in BALB/c mouse model assessed as reversal of GSH level at 1.25 to 5 mg/kg by DCFH-DA staining method; assay type: functional, organism-based; conditions: dose 1.25-5 mg/kg
Trypsin [15] = target: T1, Trypsin (Homo sapiens, UniProt P07477+P07478+P35030); assay: Inhibition of trypsin (unknown origin) assessed as inhibition of casein hydrolysis using S2238 as chromogenic substrate preincubated for 5 mins followed by substrate addition and measured after 11 mins by absorbance based analysis; assay type: protein assay; conditions: dose 0.3125-10 µM, time 16.0 min
Mus musculus [16] = assay: Anti-inflammatory activity in L-arginine-induced acute pancreatitis in BALB/c mouse model assessed as inhibition of trypsin activity at 1.25 to 5 mg/kg preincubated with compound followed by L-Arg induction for 1 hr and measured after 24 hrs; assay type: functional, organism-based; conditions: dose 1.25-5 mg/kg, time 25.0 hrs
Mus musculus [17] = assay: Anti-inflammatory activity in L-arginine-induced acute pancreatitis in BALB/c mouse model assessed as reduction in interstitial edema in pancreas at 1.25 to 5 mg/kg preincubated with compound followed by L-Arg induction for 1 hr and measured after 24 hrs by H and E staining based analysis; assay type: functional, organism-based; conditions: dose 1.25-5 mg/kg, time 25.0 hrs
Mus musculus [18] = assay: Anti-inflammatory activity in L-arginine-induced acute pancreatitis in BALB/c mouse model assessed as reduction in neutrophil infiltration in pancreas at 1.25 to 5 mg/kg preincubated with compound followed by L-Arg induction for 1 hr and measured after 24 hrs by H and E staining based analysis; assay type: functional, organism-based; conditions: dose 1.25-5 mg/kg, time 25.0 hrs
Mus musculus [19] = assay: Antioxidant activity in L-arginine-induced acute pancreatitis in BALB/c mouse model assessed as decrease in MDA level at 1.25 to 5 mg/kg by DCFH-DA staining method; assay type: functional, organism-based; conditions: dose 1.25-5 mg/kg
Mus musculus [20] = assay: Anti-inflammatory activity in L-arginine-induced acute pancreatitis in BALB/c mouse model assessed as decrease in neutrophil to lymphocyte ratio at 5 mg/kg preincubated with compound followed by L-Arg induction for 1 hr and measured after 24 hrs; assay type: functional, organism-based; conditions: time 25.0 hrs
Mus musculus [21] = assay: Antioxidant activity in L-arginine-induced acute pancreatitis in BALB/c mouse model assessed as reversal of SOD activity at 1.25 to 5 mg/kg by DCFH-DA staining method; assay type: functional, organism-based; conditions: dose 1.25-5 mg/kg
Mus musculus [22] = species: Mus musculus; assay: Anti-inflammatory activity in L-arginine-induced acute pancreatitis in BALB/c mouse model assessed as reduction in IL-6 level preincubated with compound followed by L-Arg induction for 1 hr and measured after 24 hrs by ELISA method; assay type: functional, organism-based; conditions: dose 1.25-5 mg/kg, time 25.0 hrs
Mus musculus [23] = assay: Anti-inflammatory activity in L-arginine-induced acute pancreatitis in BALB/c mouse model assessed as reduction in necrosis in pancreas at 1.25 to 5 mg/kg preincubated with compound followed by L-Arg induction for 1 hr and measured after 24 hrs by H and E staining based analysis; assay type: functional, organism-based; conditions: dose 1.25-5 mg/kg, time 25.0 hrs
[24] = Antioxidant activity assessed as DPPH radical scavenging activity at 40 uM measured at 10 min by microplate reader analysis relative to control; assay type: functional
Mus musculus [25] = assay: Anti-inflammatory activity in L-arginine-induced acute pancreatitis in BALB/c mouse model assessed as decrease in platelet to lymphocyte ratio at 5 mg/kg preincubated with compound followed by L-Arg induction for 1 hr and measured after 24 hrs; assay type: functional, organism-based; conditions: time 25.0 hrs
Mus musculus [26] = assay: Antioxidant activity in L-arginine-induced acute pancreatitis in BALB/c mouse model assessed as decrease in ROS accumulation at 1.25 to 5 mg/kg by DCFH-DA staining method; assay type: functional, organism-based; conditions: dose 1.25-5 mg/kg
Mus musculus [27] = assay: Anti-inflammatory activity in L-arginine-induced acute pancreatitis in BALB/c mouse model assessed as reduction in hemorrhage in pancreas at 1.25 to 5 mg/kg preincubated with compound followed by L-Arg induction for 1 hr and measured after 24 hrs by H and E staining based analysis; assay type: functional, organism-based; conditions: dose 1.25-5 mg/kg, time 25.0 hrs
Trypsin [28] = target: T1, Trypsin; assay: Binding affinity to trypsin (unknown origin) assessed as dissociation constant by surface plasmon resonance imaging method; assay type: protein assay
Trypsin [29] = target: T1, Trypsin; assay: Binding affinity to trypsin (unknown origin) assessed as inhibition constant by Lineweaver-Burk plot analysis; assay type: protein assay

## CC(=O)N[C@@H](CS)C(=O)O
Mus musculus [1]
  Activity: Active
Mus musculus [2]
  Activity: Active
Mus musculus [3]
  Activity: Active

## CC(C)C[C@H](NC(=O)[C@@H]1CSSC[C@H](NC(=O)CNC(=O)[C@H](CO)NC(=O)[C@H](CC(C)C)NC(=O)[C@@H](N)CO)C(=O)N[C@@H](Cc2c[nH]c3ccccc23)C(=O)N[C@@H]([C@@H](C)O)C(=O)N[C@@H](CCCCN)C(=O)N[C@@H](CO)C(=O)N[C@@H](Cc2ccccc2)C(=O)N2CCC[C@H]2C(=O)N[C@@H](CCCNC(=N)N)C(=O)N[C@@H](CCCCN)C(=O)N2CCC[C@H]2C(=O)N1)C(=O)N[C@@H](CCCNC(=N)N)C(=O)O (H-SLSGCWTKSFPRKPCLR-OH; disulfide 5-15)
[4]
  Activity: 66.5%
Mus musculus [5]
  Activity: Dose-Dependent Effect
Mus musculus [6]
  Activity: Active
[7]
  Activity: 58.8%
Mus musculus [8]
  Flu intensity: 14936.4
Mus musculus [9]
  Activity: Dose-Dependent Effect
Mus musculus [10]
  Activity: Dose-Dependent Effect
Mus musculus [11]
  Time: 12.46 min
Mus musculus [12]
  Activity: Active
Mus musculus [13]
  Activity: Dose-Dependent Effect
Mus musculus [14]
  Activity: Active
Trypsin [15]
  inhibition: Dose-Dependent Effect
Mus musculus [16]
  Activity: Active
Mus musculus [17]
  Activity: Active
Mus musculus [18]
  Activity: Active
Mus musculus [19]
  Activity: Active
Mus musculus [20]
  Activity: Active
Mus musculus [21]
  Activity: Active
Mus musculus [22]
  Activity: Dose-Dependent Effect
Mus musculus [23]
  Activity: Active
[24]
  Activity: 33.1%
Mus musculus [25]
  Activity: Active
Mus musculus [26]
  Activity: Active
Mus musculus [27]
  Activity: Active
Trypsin [28]
  Kd: 1930 nM
Trypsin [29]
  Ki: 2660 nM
